These results are taken from PMC6048275, “Methylpiperidinium Iodides as Novel Antagonists for α7 Nicotinic Acetylcholine Receptors” (Frontiers in Pharmacology, 2018).

The target of the test is T1, rat hippocampal α7 nAChR (endogenous, CA1 stratum radiatum interneurons) (Rattus norvegicus, UniProt Q05941).
T1 construct: gene Chrna7; native full-length homopentamer in rat hippocampal CA1 interneurons in brain slices
The test is described as follows: whole-cell voltage clamp, choline-induced current, rat CA1 interneurons in slice. Conditions: 10 mM choline puffs; antagonist; -70 mV; pH 7.4; room temperature; approximate, read from concentration-response curve; voltage-independent; native receptor, α7β2 possibly mixed; read-out: 50% inhibition of ICh.

T1 sequence (Q05941 23-502): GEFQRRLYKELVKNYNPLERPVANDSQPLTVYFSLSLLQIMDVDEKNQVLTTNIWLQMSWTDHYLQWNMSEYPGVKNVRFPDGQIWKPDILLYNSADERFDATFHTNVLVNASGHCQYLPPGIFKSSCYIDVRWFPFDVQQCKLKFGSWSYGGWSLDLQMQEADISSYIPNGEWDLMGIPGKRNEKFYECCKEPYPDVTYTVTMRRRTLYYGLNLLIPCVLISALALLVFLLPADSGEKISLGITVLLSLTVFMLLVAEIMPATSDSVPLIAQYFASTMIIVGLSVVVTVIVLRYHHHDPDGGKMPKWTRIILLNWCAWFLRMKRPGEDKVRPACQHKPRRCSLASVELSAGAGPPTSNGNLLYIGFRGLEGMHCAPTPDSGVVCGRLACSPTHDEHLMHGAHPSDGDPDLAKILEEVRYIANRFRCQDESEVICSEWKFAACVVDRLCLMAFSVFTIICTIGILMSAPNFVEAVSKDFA

For the compound `CCCCCCCOc1ccc(OCC[N+]2(C)CCCCC2)cc1` [12a], the IC50 is roughly 5 µM.
